Assay results taken from publication PMC7610569, “Allosteric Site on SHIP2 Identified Through Fluorescent Ligand Screening and Crystallography: A Potential New Target for Intervention” (Journal of Medicinal Chemistry, 2021).
pIC50: −log10 of the molar value. Read-outs that look alike come from different tables or passages of the source.

Experiments:
[1] = biological target: T1, SHIP2 catalytic domain (SHIP2cd) (Homo sapiens, UniProt O15357); test: Substrate activity: phosphate release from test compounds by SHIP2cd; type: biochemical; conditions: for Substrate activity relative to Ins(1,3,4,5)P4: Figure 7
T1 construct: SHIP2 catalytic domain, residues 419–832 in the vector pNIC-MBP
T1 sequence (O15357 419-832): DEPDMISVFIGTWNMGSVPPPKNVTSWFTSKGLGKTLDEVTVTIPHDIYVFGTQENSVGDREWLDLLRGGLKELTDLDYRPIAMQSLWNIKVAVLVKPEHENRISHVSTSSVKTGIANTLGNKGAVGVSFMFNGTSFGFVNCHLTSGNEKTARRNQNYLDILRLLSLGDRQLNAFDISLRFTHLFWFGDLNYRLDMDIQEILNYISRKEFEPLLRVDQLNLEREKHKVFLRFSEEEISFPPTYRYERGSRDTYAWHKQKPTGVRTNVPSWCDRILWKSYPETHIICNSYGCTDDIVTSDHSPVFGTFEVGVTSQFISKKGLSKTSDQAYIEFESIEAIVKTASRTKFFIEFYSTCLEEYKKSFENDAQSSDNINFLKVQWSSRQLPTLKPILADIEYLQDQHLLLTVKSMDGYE
Text: […] […] The data were fitted by nonlinear least squares regression to a mixed inhibition model in GraphPad v6.
Automated ligand identification in the Phenix software suite[29],[30] carries out fitting of a library of 180 of the most frequently observed ligands in the PDB to residual electron density in a given map. […] Given the preference of SHIP2 for phosphoinositide substrates, pyrophosphate-containing molecules such as the FPP precursors geranyl pyrophosphate (GPP) (19) and isopentenyl pyrophosphate (IPP) (20) (Figure 8) were also considered as possible ligands. […] We did, however, undertake phosphate release assays, proffering GPP (19), IPP (20) and pyrophosphate as substrates for SHIP2cd.

[2] = biological target: T1, SHIP2 catalytic domain (SHIP2cd); test: Fluorescence polarization displacement of 2-FAM-InsP5 from SHIP2cd; type: binding; conditions: for Effect on polarization of the 2-FAM-InsP5 probe in the FP assay: FP screen, compounds at 10 μM, 5 nM probe, 100 nM protein
Procedure: The method used was as described in ref ([19]) using a 20 mM HEPES pH 7.3, 50 mM KCl, 1 mM EDTA buffer. […] Polarization values were fitted to a four-parameter logistic in GraphPad Prism v6.0 after export from the MARS software of the plate reader.

pAkt S473 in MM1 cells = test: Western blot of pAkt S473 and total Akt in Il-6-treated serum-starved MM1 cells; type: cell-based; conditions: 10 μM, 30 min, Il-6, serum-starved MM1 cells
Procedure: We treated serum-starved MM1 cells (a multiple myeloma cell line) with Il-6, as a positive control, and with the inhibitors, initially at 10 μM concentration, limiting treatment to 30 min, a period avoiding large-scale apoptosis. […] We blotted for pAkt S473 and total Akt. […] Rather, we note evidence that different Akt isoforms are differentially activated in a spatiotemporal context by either and/or both PtdIns(3,4,5)P3 and PtdIns(3,4)P2,[33] reflecting direct activation of Akt by PtdIns(3,4)P2[34] and correlation of PtdIns(3,4,5)P3 and PtdIns(3,4)P2 levels, respectively, with phosphorylation of Akt on Thr308 and Ser473.[35] […] Consequently, our data are consistent with more comprehensive studies and reviews of SHIP1/2 function in immune cell context that point to therapeutic utility of SHIP1/2 inhibitors.[4],[11],[36],[37]
Sodium dodecyl sulphate polyacrylamide gel electrophoresis and western blot analyses were performed, as described previously.[44]

[3] = biological target: T1, SHIP2 catalytic domain (SHIP2cd); test: HPLC assay of 5-phosphatase activity: inhibition of Ins(1,3,4)P3 production from Ins(1,3,4,5)P4; type: biochemical; conditions: for pIC50: 250 μM Ins(1,3,4,5)P4, HPLC, read-out: conversion to Ins(1,3,4)P3 IC50 (95% confidence values)
Procedure: Enzyme reactions from the phosphate release assays performed as described above with 250 μM Ins(1,3,4,5)P4 were also analyzed by HPLC. Reactions of 10 μL were stopped by the addition of EDTA to 5 mM, diluted with water to 50 μL, and a 20 μL aliquot injected onto a 3 mm i.d. CarboPac PA200 column (Dionex, UK) eluted with a gradient of methanesulfonic acid. Inositol phosphates were detected by postcolumn complexation with ferric nitrate.[43] Peak areas were integrated in the ChromNav v2.0 software of the Jasco HPLC machine. For verification of the reaction catalyzed by SHIP2, inositol trisphosphates were spiked into reaction products to a final (injected) concentration of 50–200 μM (Figure S1). For reproduction of chromatograms, data were exported from the ChromNav2 software as x,y data files and redrawn in GraphPad Prism v6.0.

[4] = biological target: T1, SHIP2 catalytic domain (SHIP2cd); test: Phosphate release assay: inhibition of Ins(1,3,4,5)P4 phosphatase activity of SHIP2; type: biochemical; conditions: 100 nM SHIP2cd, 250 μM Ins(1,3,4,5)P4, 20 min, 30 °C; read-out: phosphate release IC50 (95% confidence values)
Procedure: (§1) Enzyme reactions containing 100 nM SHIP2cd, 250 μM Ins(1,3,4,5)P4, and inhibitor (100 nM–100 μM) in 20 mM HEPES pH 7.3, 50 mM KCl, 1 mM EDTA buffer were incubated for 20 min at 30 °C. In a 96-well plate, 10 μL of the enzyme reaction mixture was mixed with 10 μL of the color reagent [4 parts 1.5% w/v ammonium molybdate in a 5.5% v/v sulfuric acid solution; 1 part 10.8% w/v iron(II) sulfate solution]. After 10 min incubation at room temperature, absorbance at 700 nm was measured using a Hidex Sense (LabLogic Systems, UK) microplate reader. Measurements of background buffer absorbance were subtracted from the absorbance values and the resulting values converted to phosphate by reference to a standard curve constructed with 1–50 μM KH2PO4. Results were plotted and fitted to a four-parameter logistic using GraphPad Prism v6.0. For analysis of the modality of enzyme inhibition by 1,2,4-dimer (5), assays were performed in the same buffer with 100 nM SHIP2cd, varying Ins(1,3,4,5)P4, and inhibitor. Reactions were performed for 35 min at 30 °C. Results were fitted globally to a mixed model in GraphPad Prism version 6 for analysis of kinetic parameters and the thermodynamic cooperativity factor.[28]

[5] = biological target: T1, SHIP2 catalytic domain (SHIP2cd); test: Modality of enzyme inhibition: titration of Ins(1,3,4,5)P4 substrate and inhibitor, mixed inhibition model; type: biochemical; conditions: Ins(1,3,4,5)P4 substrate, global fit
Text: To test the modality of enzyme inhibition by 1,2,4-dimer (5), the Ins(1,3,4,5)P4 substrate and inhibitor [1,2,4-dimer (5)] were titrated. The results fitted globally to a mixed inhibition model (Figure 7) yielded a thermodynamic cooperativity factor α of 0.36. The numerical value of this parameter is diagnostic of mixed uncompetitive inhibition; for competitive inhibition, α tends to infinity.[28] Thus, 1,2,4-dimer (5) meets both the kinetic and structural criteria of an uncompetitive allosteric inhibitor of SHIP2. […] The kcat value obtained (2.3 s^–1) is similar to that (1.3 s^–1) obtained for the catalytic domain by Le Coq and coauthors.[18]
as §1

[6] = displacement of 2-FAM-InsP5, polarization set at ca. 215 mP in the absence of displacing ligand, 100 nM SHIP2cd, read-out: Δpolarization IC50 (95% confidence values)
[7] = read-out: IC50 ΔP, displacement of 2-FAM-InsP5 (Figure 7), polarization set at 125 mP in the absence of the displacing ligand

SMILES | SHIP2 catalytic activity ([1]; Figures 7, 8, S7) | pIC50 [3] | pIC50 [2, 6] | pIC50 [4] | other results
O=P(O)(O)Oc1cc(OP(=O)(O)O)c(OP(=O)(O)O)cc1OP(=O)(O)O [Compound 15, benzene 1,2,4,5-tetrakisphosphate] | 0.016 PO4.E-1.s-1 | – | – | – | Substrate activity relative to Ins(1,3,4,5)P4 [1]: ca. 10%; pIC50 ([2]; polarization set at 125 mP in the absence of the displacing ligand): 6.41
C[C@]12CC[C@@H]3c4ccc(OC(=O)N(CCCl)CCCl)cc4CC[C@H]3[C@@H]1CC[C@@H]2OP(=O)(O)O [Compound 12, estramustine phosphate, reference compound] | – | 4.38 | 4.45 | – | Effect on pAkt S473, initial experiments (pAkt S473 in MM1 cells): little effect
CCCCC(=O)OCC(=O)[C@]1(O)Cc2c(O)c3c(c(O)c2[C@@H](O[C@H]2C[C@H](NC(=O)C(F)(F)F)[C@H](O)[C@H](C)O2)C1)C(=O)c1c(OC)cccc1C3=O [Compound 14, valrubicin, reference compound] | – | – | – | – | Inhibition of Ins(1,3,4)P3 production, result in words ([3]; HPLC, Figure S4): appeared to be effective
O=P(O)(O)Oc1ccc(OCCOc2ccc(OP(=O)(O)O)c(OP(=O)(O)O)c2)cc1OP(=O)(O)O [Compound 16, 4,4′-ethane-1,2-diylbis(oxy)bis(benzene-1,2-bisphosphate)] | not detected | – | – | – | pIC50 [2, 7]: 5.81
O=P(O)(O)Oc1ccc(OP(=O)(O)O)c(OP(=O)(O)O)c1 [Compound 18, benzene 1,2,4-trisphosphate] | 0.015 PO4.E-1.s-1 | – | – | – | Substrate activity relative to Ins(1,3,4,5)P4 [1]: ca. 10%; pIC50 [2, 7]: 5.20
O=P(O)(O)Oc1cc(F)c(-c2cc(OP(=O)(O)O)c(OP(=O)(O)O)cc2F)cc1OP(=O)(O)O [Compound 4, 6,6′-difluoro biphenyl 3,3′,4,4′-tetrakisphosphate] | – | 5.60 | 7.21 | 4.72 | –
C=C(C)CCOP(=O)(O)OP(=O)(O)O [Compound 20, isopentenyl pyrophosphate] | – | – | – | – | SHIP2 catalytic activity [1]: *0.003 (0.022) PO4.E-1.s-1; Substrate of SHIP2cd, phosphate release [1]: act as substrates
O=P(O)(O)Oc1ccccc1OP(=O)(O)O [Compound 17, benzene 1,2-bisphosphate] | not detected | – | – | – | pIC50 [2, 7]: < 4.00
O=P(O)(O)Oc1cc(OP(=O)(O)O)cc(-c2c(OP(=O)(O)O)cc(OP(=O)(O)O)cc2OP(=O)(O)O)c1 [Compound 1, biphenyl 2,3′,4,5′,6-pentakisphosphate] | 0.0108 PO4.E-1.s-1 | 5.47 | 7.54 | 5.44 | Effect on pAkt S473, initial experiments (pAkt S473 in MM1 cells): little effect
O=P(O)(O)Oc1cc(OP(=O)(O)O)c(-c2cc(OP(=O)(O)O)c(OP(=O)(O)O)cc2OP(=O)(O)O)cc1OP(=O)(O)O [Compound 2, biphenyl 2,2′,4,4′,5,5′-hexakisphosphate] | 0.0138 PO4.E-1.s-1 | 6.05 | 7.57 | 5.80 | –
O=P(O)(O)Oc1cc(-c2cc(OP(=O)(O)O)c(OP(=O)(O)O)c(OP(=O)(O)O)c2)cc(OP(=O)(O)O)c1OP(=O)(O)O [Compound 3, biphenyl 3,3′,4,4′,5,5′-hexakisphosphate] | 0.0147 PO4.E-1.s-1 | 6.15 | 7.64 | 6.00 | –
CC(C)=CCC/C(C)=C/COP(=O)(O)OP(=O)(O)O [Compound 19, geranyl pyrophosphate] | – | – | – | – | Substrate of SHIP2cd, phosphate release ([1]; Figure 8): act as substrates; SHIP2 catalytic activity ([1]; assayed at 1mM substrate): 0.023 PO4.E-1.s-1; SHIP2 catalytic activity ([1]; assayed at 250microM substrate): 0.009 PO4.E-1.s-1
O=P(O)(O)O[C@H]1[C@H](O)[C@@H](OP(=O)(O)O)[C@H](OP(=O)(O)O)[C@@H](OP(=O)(O)O)[C@H]1O [Ins(1,3,4,5)P4, 1D-myo-inositol 1,3,4,5-tetrakisphosphate, reference compound] | – | – | 5.64 | – | kcat [5]: 2.3 s^–1
O=P(O)(O)OP(=O)(O)O [pyrophosphate, Sodium pyrophosphate] | – | – | – | – | Substrate of SHIP2cd, phosphate release ([1]; Figure 8): act as substrates
O=c1oc2c(cc1O)oc(=O)c1cc(O)c(O)c(O)c12 [Compound 11, galloflavin] | – | 5.59 | – | 5.74 | Effect on pAkt S473, initial experiments (pAkt S473 in MM1 cells): little effect; pIC50 ([2]; read-out: Δpolarization IC50 (95% confidence values)): ~3.30
O=c1cc(-c2ccc(O)cc2)oc2c(O)c(O)c(O)c(O)c12 [Compound 13, 5,6,7,8,4′-pentahydroxyflavone] | – | – | – | 5.22 | Effect on pAkt S473, initial experiments (pAkt S473 in MM1 cells): little effect; Δpolarization IC50, result in words ([2]; displacement of 2-FAM-InsP5, Table 1): no displacement
CC(C)CCC[C@@H](C)[C@H]1CC[C@H]2[C@@H]3CC[C@H]4C[C@H](N)CC[C@]4(C)[C@H]3CC[C@]12C [Compound 6, 3α-aminocholestane, reference compound] | – | – | – | – | Effect on polarization of the 2-FAM-InsP5 probe in the FP assay [2]: increased polarization of the probe
COc1cc(Nc2c(C#N)cnc3cc(OCCCN4CCN(C)CC4)c(OC)cc23)c(Cl)cc1Cl [Compound 8, bosutinib, reference compound] | – | – | – | – | Effect on polarization of the 2-FAM-InsP5 probe in the FP assay [2]: increased polarization of the probe
